In patent US20150258084A1, “STEM CELL COMPOSITIONS AND METHODS OF THEIR USE” (Banner Health, priority 2014, published 2015):

Legend:
Type in all cases: cell-based, rat
cardiac stem cells [1] = test: RNA expression analysis (real-time RT-PCR) of EMT and pluripotency markers after 7 days with TGF-β inhibitors
Method: Total RNA was extracted from the cardiac stem cells using PureLink RNA Mini Kit (Life Technologies) according to the manufacturer's protocol. RNA was then quantified with a Quanti-iT RiboGreen RNA Assay Kit and assessed using a BioTek Synergy HT Microplate Reader (excitation/emission 480/520 nm). Total RNA (200 ng) was reverse-transcribed with a QuantiTect Reverse Transcription kit (Qiagen). Real-time RT-PCR was conducted using Rower SYBR Green Master Mix (Applied Biosystems) on a StepOnePlus Real-time PCR System (Applied Biosystems). Specific primers were synthesized by Life Technologies. CYPA was used as a reference gene. Data analysis was performed on StepOne software version 2.1 (Applied Biosystems) using the comparative Ct (AACt) quantitation method.
To determine the effect of inhibition of TGF-β signaling in cardiac stem cells on markers of epithelial/endothelial to mesenchymal transition (i.e., EMT markers) and pluripotency markers the following experiments were performed. Cardiac stem cells were isolated from sham and CHF heart tissue as described in Example 1 above. Cardiac stem cells from CHF and sham animals were treated in culture with TGF-β inhibitors SB431542 or SIS3 for 7 days and subsequently assessed for EMT and pluripotency expression by RNA expression analysis and western blotting using the techniques described above in Example 1.

[2] = tested on: explant-derived cardiac stem cells; test: Flow cytometry of explant outgrowths cultured 21 days with TGF-β inhibitors
Method: Isolated cardiac stem cells were further characterized using flow cytometry as follows. Cells were fixed in 70% ethanol and labeled with the following antibodies: c-Kit (Santa-Cruz Biotechnology), vimentin and smooth muscle actin (Abcam), and CD90 (BD Biosciences). Cells were treated with secondary antibodies corresponding to either anti-rabbit or anti-mouse IgG conjugated with Alexa 488, phycoerythrin (PE), or PE-Cy5.5 (Life Technologies). Direct labeling with FITC-conjugated CD34 and PE-Cy5.5 conjugated CD45 (BD Biosciences) antibodies was used to exclude bone marrow and hematopoietic cells. Freshly isolated bone marrow cells were used as positive controls for CD34 and CD45 labeling. For a negative control, cells were labeled with isotype IgG instead of primary antibody. Cell events were detected using a FACS Calibur flow cytometer equipped with an argon laser (BD Biosciences). Data were analyzed using CellQuest software (BD Biosciences).
The effects of TGF-β inhibition on the yield of explant-derived cardiac stem cells were examined as follows. Cardiac stem cells were isolated from heart tissue of CHF and sham animals as described in Example 1 above. Cells were subsequently cultured in cardiac differentiation medium (EMD Millipore) supplemented with 2 μmol/L Mocetinostat (SelleckChem) in the presence or absence of TGF-β inhibitors SB431542 and SIS3 for 21 days. Explant outgrowths were analyzed by flow cytometry as described above in Example 1.

cardiac stem cells [3] = test: Differentiation potential: cardiac troponin T (TnT) immunocytochemistry; conditions: 7 days in cardiac differentiation medium with 2 μmol/L Mocetinostat
Method: The effects of TGF-β inhibition on the differentiation potential of cardiac stem cells was examined as follows. Cardiac stem cells were isolated from heart tissue of CHF and sham animals as described in Example 1 above. Cells were subsequently cultured in cardiac differentiation medium (EMD Millipore) supplemented with 2 μmol/L Mocetinostat (SelleckChem) in the presence or absence of TGF-β inhibitors SB431542 and SIS3 for 7 days. Expression of cardiac troponin T (TnT) was evaluated by immunocytochemistry. TnT is an accepted marker for cardiac differentiation. Cells were fixed/permeabilized with a 1:1 acetone:ethanol mixture, blocked with 3% BSA in PBS, and labeled with mouse anti-TnT primary antibody (Abcam). Specific staining was visualized using anti-mouse secondary antibodies conjugated with Alexa 568 (Molecular Probes). Nuclei were stained with 4′,6-diamidino-2-phenylindole (Invitrogen). TnT-positive cells were quantified in 5 random microscopic fields. The percentage of TnT-positive cells was calculated as the number of positively stained cells normalized to the total number of cells.

cardiac explants = test: Morphology of explant cultures after 21 days with TGF-β inhibitors; conditions: 21 days in culture

| SMILES | increased Sox2 expression (cardiac stem cells [1]; CHF cardiac stem cells) | upregulated E-cadherin expression (cardiac stem cells [1]; CHF cardiac stem cells) | upregulated Nanog expression (cardiac stem cells [1]; CHF cardiac stem cells) | increased Sox2 expression (cardiac stem cells [1]; sham cardiac stem cells) | reduced SMA gene expression (cardiac stem cells [1]; sham cardiac stem cells) | upregulated E-cadherin expression (cardiac stem cells [1]; sham cardiac stem cells) | upregulated Nanog expression (cardiac stem cells [1]; sham cardiac stem cells) | decreased percentage of vimentin-positive fibroblasts ([2]; CHF CSCs) | increase in the number of c-Kit+ cells ([2]; CHF CSCs) | reduction of the number of SMA-positive myofibroblasts ([2]; CHF CSCs) | decreased percentage of vimentin-positive fibroblasts ([2]; sham CSCs) | increase in the number of c-Kit+ cells ([2]; sham CSCs) | TnT+ cells (cardiac stem cells [3]; CHF cardiac stem cells) | TnT+ cells (cardiac stem cells [3]; sham cardiac stem cells) | number of small, round phase-bright cell clusters compared with controls (cardiac explants) | reduction of the number of CD90-positive cells ([2]; CHF CSCs) | reduction of the number of CD90-positive cells ([2]; sham CSCs) |
| --- | --- | --- | --- | --- | --- | --- | --- | --- | --- | --- | --- | --- | --- | --- | --- | --- | --- |
| NC(=O)c1ccc(-c2nc(-c3ccc4c(c3)OCO4)c(-c3ccccn3)[nH]2)cc1 [SB431542] | 4.1 fold | 3.6 fold | 2.4 fold | 5.2 fold | 2 fold | 6.2 fold | 2 fold | 42% | 75% | 63.3% | 55% | 36.6% | 15.4% | 24.4% | higher number | – | – |
| COc1cc2c(cc1OC)CN(C(=O)/C=C/c1c(-c3ccccc3)n(C)c3ncccc13)CC2 [SIS3] | – | no effect | no effect | 4 fold | 5 fold | 5 fold | 2.2 fold | 34% | no effect | 62.8% | 35% | 52% | 19.6% | 36.2% | higher number | 53% | 52.4% |
